The experiment deals with ATF4 luciferase reporter in HEK293T cells. As to the kind of experiment: ATF4-Luc assay (in vitro model of VWMD). Type of experiment: cell-based, human. The following applies: Homo sapiens, HEK-293T, 7 h, HEK293T cells carrying the ATF4 luciferase reporter, 1 μg/mL tunicamycin, One Glo luminescence. The essentials:
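Stable HEK293T line expressing firefly luciferase behind the human ATF4 5′-UTR, treated with 1 μg/mL tunicamycin plus compound for 7 hours. Luminescence read with One Glo; EC50 determined.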
(Reporter assays use an easily measured gene product as a stand-in for the process of interest.)

Among the data in US20250145594A1, “MODULATORS OF THE INTEGRATED STRESS PATHWAY” (Calico Life Sciences LLC, priority 2020, published 2025) are EC50 values, retold here.

As usually defined, the EC50 is the concentration that produces a half-maximal response.

On to `O=C(NC12CC(n3cc(-c4ccc(OC(F)(F)F)cn4)cn3)(C1)C2)[C@@H]1C[C@@H](O)c2cc(Cl)ccc2O1` [Compound 346, (2S,4R)-6-chloro-4-hydroxy-N-(3-{4-[5-(trifluoromethoxy)pyridin-2-yl]-1H-pyrazol-1-yl}bicyclo[1.1.1]pentan-1-yl)-3,4-dihydro-2H-1-benzopyran-2-carboxamide], for which the EC50 was < 10 nM.
The value for `O=C(NC12CC(n3cc(OCCOC(F)(F)F)cn3)(C1)C2)[C@H]1C[C@@H](O)c2cc(C(F)(F)F)c(F)cc2O1` [Compound 483, (2R,4R)-7-fluoro-4-hydroxy-N-(3-{4-[2-(trifluoromethoxy)ethoxy]-1H-pyrazol-1-yl}bicyclo[1.1.1]pentan-1-yl)-6-(trifluoromethyl)-3,4-dihydro-2H-1-benzopyran-2-carboxamide] was < 10 nM; that for `O=C(NC12CC(n3cc(O[C@H]4C[C@H](OC(F)(F)F)C4)cn3)(C1)C2)[C@H]1C[C@@H](O)c2cc(Cl)ccc2O1` [Compound 587, (2R,4R)-6-chloro-4-hydroxy-N-[3-(4-{[(1r,3R)-3-(trifluoromethoxy)cyclobutyl]oxy}-1H-pyrazol-1-yl)bicyclo[1.1.1]pentan-1-yl]-3,4-dihydro-2H-1-benzopyran-2-carboxamide] was < 10 nM.
Next, `O=C(NC12CC(n3cnc(-c4ccc(OC(F)(F)F)c(F)c4F)c3)(C1)C2)[C@H]1C[C@@H](O)c2cc(Cl)ccc2O1` [Compound 391, (2R,4R)-6-chloro-N-(3-{4-[2,3-difluoro-4-(trifluoromethoxy)phenyl]-1H-imidazol-1-yl}bicyclo[1.1.1]pentan-1-yl)-4-hydroxy-3,4-dihydro-2H-1-benzopyran-2-carboxamide]: < 10 nM.
The value for `O=C(COc1ccc(Cl)c(F)c1)NC12CCC(c3nnc([C@H]4C[C@@H](OC(F)(F)F)C4)o3)(CC1)CC2O` (stereo partly shown) [Compound 124, 2-(4-chloro-3-fluorophenoxy)-N-(2-hydroxy-4-{5-[(1s,3s)-3-(trifluoromethoxy)cyclobutyl]-1,3,4-oxadiazol-2-yl}bicyclo[2.2.2]octan-1-yl)acetamide] was 10 to 50 nM; that for `COc1ccc2cn(C34CC(NC(=O)[C@H]5C[C@@H](O)c6cc(Cl)c(F)cc6O5)(C3)C4)nc2c1` [Compound 504, (2R,4R)-6-chloro-7-fluoro-4-hydroxy-N-[3-(6-methoxy-2H-indazol-2-yl)bicyclo[1.1.1]pentan-1-yl]-3,4-dihydro-2H-1-benzopyran-2-carboxamide] was < 10 nM; that for `O=C(NC12CC(n3cc(C(=O)N4CC[C@H](OC(F)(F)F)C4)cn3)(C1)C2)[C@H]1C[C@H](O)c2cc(Cl)ccc2O1` [Compound 585, (2R,4S)-6-chloro-4-hydroxy-N-(3-{4-[(3S)-3-(trifluoromethoxy)pyrrolidine-1-carbonyl]-1H-pyrazol-1-yl}bicyclo[1.1.1]pentan-1-yl)-3,4-dihydro-2H-1-benzopyran-2-carboxamide] was < 10 nM.
With `O=C(NC12CC(n3cc(OCCCOC(F)(F)F)cn3)(C1)C2)[C@H]1C[C@@H](O)c2cc(C(F)(F)F)ccc2O1` [Compound 435, (2R,4R)-4-hydroxy-N-(3-{4-[3-(trifluoromethoxy)propoxy]-1H-pyrazol-1-yl}bicyclo[1.1.1]pentan-1-yl)-6-(trifluoromethyl)-3,4-dihydro-2H-1-benzopyran-2-carboxamide], the EC50 was < 10 nM.
The value for `O=C(NC12CC(n3cc(N4CCN(CC(F)(F)F)CC4=O)cn3)(C1)C2)[C@H]1C[C@@H](O)c2cc(Cl)ccc2O1` [Compound 383, (2R,4R)-6-chloro-4-hydroxy-N-(3-{4-[2-oxo-4-(2,2,2-trifluoroethyl)piperazin-1-yl]-1H-pyrazol-1-yl}bicyclo[1.1.1]pentan-1-yl)-3,4-dihydro-2H-1-benzopyran-2-carboxamide] was < 10 nM; that for `O=C(CO[C@H]1C[C@@H](OC(F)(F)F)C1)NC12CC(NC(=O)[C@H]3C[C@H](O)c4cc(C(F)(F)F)c(F)cc4O3)(C1)C2` [Compound 643, (2R,4S)-7-fluoro-4-hydroxy-N-[3-(2-{[(1s,3S)-3-(trifluoromethoxy)cyclobutyl]oxy}acetamido)bicyclo[1.1.1]pentan-1-yl]-6-(trifluoromethyl)-3,4-dihydro-2H-1-benzopyran-2-carboxamide] was < 10 nM.
Next, `O=C(NC12CC(n3cc(OCCOC(F)(F)F)cn3)(C1)C2)[C@H]1C[C@@H](O)c2cc(C(F)(F)F)ccc2O1` [Compound 424, (2R,4R)-4-hydroxy-N-(3-{4-[2-(trifluoromethoxy)ethoxy]-1H-pyrazol-1-yl}bicyclo[1.1.1]pentan-1-yl)-6-(trifluoromethyl)-3,4-dihydro-2H-1-benzopyran-2-carboxamide]: < 10 nM; `O=C(COc1ccc(Cl)c(Cl)c1)NC12CC(n3cc(C(=O)N4CC[C@H](OC(F)(F)F)C4)cn3)(C1)C2` [Compound 606, 2-(3,4-dichlorophenoxy)-N-(3-{4-[(3S)-3-(trifluoromethoxy)pyrrolidine-1-carbonyl]-1H-pyrazol-1-yl}bicyclo[1.1.1]pentan-1-yl)acetamide]: < 10 nM.
Turning to `O=C(NC12CC(n3cc(OCCCC(F)(F)F)cn3)(C1)C2)[C@H]1C[C@@H](O)c2cc(Cl)ccc2O1` [Compound 517, (2R,4R)-6-chloro-4-hydroxy-N-{3-[4-(4,4,4-trifluorobutoxy)-1H-pyrazol-1-yl]bicyclo[1.1.1]pentan-1-yl}-3,4-dihydro-2H-1-benzopyran-2-carboxamide], the EC50 is < 10 nM.
Next, `O=C(NC12CC(n3cc(C4CC(OC(F)(F)F)C4)nn3)(C1)C2)[C@H]1C[C@@H](O)c2cc(C(F)(F)F)ccc2O1` (stereo partly drawn) [Compound 470, (2R,4R)-4-hydroxy-N-(3-{4-[(1s,3S)-3-(trifluoromethoxy)cyclobutyl]-1H-1,2,3-triazol-1-yl}bicyclo[1.1.1]pentan-1-yl)-6-(trifluoromethyl)-3,4-dihydro-2H-1-benzopyran-2-carboxamide]: < 10 nM.
As to `O=C(NC12CC(c3cnc(OCCOC(F)(F)F)o3)(C1)C2)[C@H]1C[C@@H](O)c2cc(Cl)ccc2O1` [Compound 414, (2R,4R)-6-chloro-4-hydroxy-N-(3-{2-[2-(trifluoromethoxy)ethoxy]-1,3-oxazol-5-yl}bicyclo[1.1.1]pentan-1-yl)-3,4-dihydro-2H-1-benzopyran-2-carboxamide], the concentration for a half-maximal effect (EC50) was < 10 nM.
The value for `O=C(NC12CC(n3cc(C(=O)N4CC[C@@H](COC(F)(F)F)C4)cn3)(C1)C2)[C@H]1C[C@@H](O)c2cc(Cl)ccc2O1` [Compound 397, (2R,4R)-6-chloro-4-hydroxy-N-[3-(4-{(3R)-3-[(trifluoromethoxy)methyl]pyrrolidine-1-carbonyl}-1H-pyrazol-1-yl)bicyclo[1.1.1]pentan-1-yl]-3,4-dihydro-2H-1-benzopyran-2-carboxamide] was 50 to 250 nM; that for `O=C(NC12CC(n3cc(CCCCOC(F)(F)F)nn3)(C1)C2)[C@H]1C[C@@H](O)c2cc(Cl)c(F)cc2O1` [Compound 466, (2R,4R)-6-chloro-7-fluoro-4-hydroxy-N-(3-{4-[4-(trifluoromethoxy)butyl]-1H-1,2,3-triazol-1-yl}bicyclo[1.1.1]pentan-1-yl)-3,4-dihydro-2H-1-benzopyran-2-carboxamide] was < 10 nM.
`COc1ccc2nn(C34CC(NC(=O)[C@H]5C[C@@H](O)c6cc(Cl)c(Cl)cc6O5)(C3)C4)cc2c1` [Compound 507, (2R,4R)-6,7-dichloro-4-hydroxy-N-[3-(5-methoxy-2H-indazol-2-yl)bicyclo[1.1.1]pentan-1-yl]-3,4-dihydro-2H-1-benzopyran-2-carboxamide]: the EC50 was < 10 nM.
Next, `O=C(CO[C@H]1C[C@@H](OC(F)(F)F)C1)NC12CCC(NC(=O)[C@@H]3C[C@@H](O)c4cc(Cl)ccc4O3)(CC1)C[C@@H]2O` (single isomer, unassigned) [Compound 279]: < 10 nM.
`O=C(CO[C@H]1C[C@@H](OC(F)(F)F)C1)NC12CC(NC(=O)[C@H]3C[C@@H](O)c4cc(Cl)c(F)cc4O3)(C1)C2` [Compound 461, (2R,4R)-6-chloro-7-fluoro-4-hydroxy-N-[3-(2-{[(1s,3S)-3-(trifluoromethoxy)cyclobutyl]oxy}acetamido)bicyclo[1.1.1]pentan-1-yl]-3,4-dihydro-2H-1-benzopyran-2-carboxamide]: the EC50 is < 10 nM.
Turning to `COc1ccc2nn(C34CCC(NC(=O)[C@H]5C[C@@H](O)c6cc(Cl)ccc6O5)(C3)C4)cc2c1` [Compound 652, (2R,4R)-6-chloro-4-hydroxy-N-[4-(5-methoxy-2H-indazol-2-yl)bicyclo[2.1.1]hexan-1-yl]-3,4-dihydro-2H-1-benzopyran-2-carboxamide], the EC50 is 10 to 50 nM.
Next, `O=C(NC12CC(OCC(=O)N3CC(OC(F)(F)F)C3)(C1)C2)[C@H]1C[C@@H](O)c2cc(Cl)ccc2O1` [Compound 333, (2R,4R)-6-chloro-4-hydroxy-N-(3-{2-oxo-2-[3-(trifluoromethoxy)azetidin-1-yl]ethoxy}bicyclo[1.1.1]pentan-1-yl)-3,4-dihydro-2H-1-benzopyran-2-carboxamide]: 50 to 250 nM; `COc1cc2cn(C34CC(NC(=O)[C@H]5C[C@@H](O)c6cc(C(F)(F)F)ccc6O5)(C3)C4)nc2cn1` [Compound 499, (2R,4R)-4-hydroxy-N-[3-(5-methoxy-2H-pyrazolo[3,4-c]pyridin-2-yl)bicyclo[1.1.1]pentan-1-yl]-6-(trifluoromethyl)-3,4-dihydro-2H-1-benzopyran-2-carboxamide]: 10 to 50 nM; `O=C(NC12CC(n3cc(-c4ccc(C(F)F)cn4)cn3)(C1)C2)[C@H]1C[C@@H](O)c2cc(Cl)ccc2O1` [Compound 568, (2R,4R)-6-chloro-N-(3-{4-[5-(difluoromethyl)pyridin-2-yl]-1H-pyrazol-1-yl}bicyclo[1.1.1]pentan-1-yl)-4-hydroxy-3,4-dihydro-2H-1-benzopyran-2-carboxamide]: < 10 nM.
Consider `COc1cc2cn(C34CC(NC(=O)COc5ccc(Cl)c(Cl)c5)(C3)C4)nc2cn1` [Compound 622, 2-(3,4-dichlorophenoxy)-N-[3-(5-methoxy-2H-pyrazolo[3,4-c]pyridin-2-yl)bicyclo[1.1.1]pentan-1-yl]acetamide], for which the 50% effective concentration (EC50) fell in the range of 10 to 50 nM.
